Results on 12 molecules are retold here after PMC8624038, “Understanding the Mechanism of Action of NAI-112, a Lanthipeptide with Potent Antinociceptive Activity” (Molecules, 2021).

Like-named read-outs stand apart in the source and are kept apart here.

Experiment [1] concerns S. aureus ATCC6538P (wt). Briefly: microbe, parasite or virus in culture. Type of experiment: cell-based, Staphylococcus aureus. The following applies: 24 h. The procedure:
(§1) All experiments were performed with S. aureus ATCC6538P. The strain was propagated at 37 °C in Mueller–Hinton Broth (BD Difco^TM) containing 20 mg/L of CaCl2 and 10 mg/L of MgCl2 (MHBC medium). For selection of resistant strains by direct plating, S. aureus cultures were grown until OD600 of 0.7, corresponding to 5 × 10^8 CFU/mL, centrifuged, and resuspended with fresh medium to 1 × 10^10 CFU/mL. Then, 100 µL were spread on Muller–Hinton Agar (BD Difco^TM) supplemented with 160 µg/mL or 640 µg/mL of NAI-112 and incubated at 37 °C. Colonies were scored after 10 days. For selection of resistant mutants by serial passages, MHBC medium containing serial, twofold dilutions of NAI-112, starting from 512 µg/mL down to 0.5 µg/mL, was inoculated with 1 × 10^5 CFU/mL in a 96-well microtiter plate. Cultures were incubated overnight at 37 °C. The culture at the highest concentration that supported growth was diluted to 1 × 10^5 CFU/mL with fresh medium and added to a fresh plate containing serial dilutions of NAI-112 as before, followed by overnight incubation. This process was continued for 15 passages. From cultures at passage 8 (grown at 64 µg/mL) and passage 15 (grown at 256 µg/mL), single colonies were isolated and named R8.1 and R8.2 (from the eighth series) and R15.1–15.5 (from the fifteenth series).
(§2) MICs were determined by the broth microdilution methodology in sterile 96-well microtiter plates according to Clinical and Laboratory Standards Institute (CLSI) guidelines, as described by Iorio et al.. When indicated, bovine serum albumin was added to MHBC medium at 0.02% (w/v). […] Growth curves were measured under the same conditions by recording the optical density at 595 nm (OD595) over 20 h using a Synergy 2.0 plate reader (BioTeck, Winooski, VT, USA).

For experiment [2], the system named is S. aureus mutant strain R15.5. Briefly: microbe, parasite or virus in culture. Type of experiment: cell-based, Staphylococcus aureus. The following applies: for MIC: 24 h; for MIC Ratio (R15.1 to wt): ratio of MICs, mutant to wt. As for the experimental part:
as §1, §2

In experiment [3] the test system is S. aureus mutant strain R8.1. Briefly: microbe, parasite or virus in culture. Type of experiment: cell-based, Staphylococcus aureus. The following applies: for MIC: 24 h. As for the experimental part:
as §1, §2

For experiment [4] the following is noted: cited from earlier work.
For experiment [5] the following is noted: class II lantibiotics; ref [29],[30],[31],[32]; cited from earlier work. The text has this:
A few studies have identified the molecular targets of lanthipeptides. […] Two-peptide lantibiotics, ...

Experiment [6] has as its system virus. The following applies: ref [7]; cited from earlier work. The text has this:
(§3) NAI-112 is a labionine (Lab)-containing lanthipeptide with a glycosylated tryptophan residue and an unusual methyl-Lab bridge. It was discovered in a phenotypic screening program for inhibitors of bacterial cell wall biosynthesis. […] At the time of its discovery, there was only one precedent of Lab-containing lanthipeptides, the labyrinthopeptins. In particular, despite having unrelated amino acid sequences, NAI-112 and labyrinthopeptin A2 share a similar ri ...

Experiment [7] concerns neuropathic pain. The following applies: ref [7]; cited from earlier work.
Source text: as §3

Experiment [8] has as its system TRPV1. The following applies: cited from earlier work. The source says: In mice, this interference translates in lower LPA levels.
Experiment [9] deals with TRPV1. The following applies: ref [24], cited from earlier work. The source says: The results from the lipidomic experiments in mice, from the binding assay analyzed in MS and from the analysis of the S. aureus mutants resistant to NAI-112, are consistent with the hypothesis that NAI-112 binds to one or more phosphate-containing lipids and, by doing so, interferes with the processing of these lipids by relevant enzymes. In mice, this interference translates in lower LPA levels.

Setting [10] is: class I lanthipeptides, followed by pore formation or membrane disruption, ref [25],[26],[27].

`CC[C@H]1OC(=O)[C@H](C)[C@@H](O[C@H]2C[C@@](C)(OC)[C@@H](O)[C@H](C)O2)[C@H](C)[C@@H](O[C@@H]2O[C@H](C)C[C@H](N(C)C)[C@H]2O)[C@](C)(O)C[C@@H](C)C(=O)[C@H](C)[C@@H](O)[C@]1(C)O` [Erythromycin, erythromycin]: the MIC was determined as 0.125 µg/mL in [1] (Staphylococcus aureus, ATCC6538P); 0.125 µg/mL in experiment [2] (Staphylococcus aureus); 0.125 µg/mL in experiment [3] (Staphylococcus aureus). The “MIC Ratio (R15.1 to wt)” value in experiment [2] turned out to be 1.

As for `CO[C@H]1/C=C/O[C@@]2(C)Oc3c(C)c(O)c4c(O)c(c(/C=N/N5CCN(C)CC5)c(O)c4c3C2=O)NC(=O)/C(C)=C\C=C\[C@H](C)[C@H](O)[C@@H](C)[C@@H](O)[C@@H](C)[C@H](OC(C)=O)[C@@H]1C` [Rifampicin, rifampicin], the MIC in [1] (Staphylococcus aureus, ATCC6538P, wt, MHBC medium, 1 × 10^5 CFU/mL, 37 °C, broth microdilution (CLSI), read-out: MIC) is 0.004 µg/mL; in experiment [2] (Staphylococcus aureus) it was 0.004 µg/mL; in experiment [3] (Staphylococcus aureus), 0.004 µg/mL. For the same molecule, the “MIC Ratio (R15.1 to wt)” value in experiment [2] came out at 1.

Consider `CN[C@H](CC(C)C)C(=O)N[C@H]1C(=O)N[C@@H](CC(N)=O)C(=O)N[C@H]2C(=O)N[C@H]3C(=O)N[C@H](C(=O)N[C@H](C(=O)O)c4cc(O)cc(O)c4-c4cc3ccc4O)[C@H](O)c3ccc(c(Cl)c3)Oc3cc2cc(c3O[C@@H]2O[C@H](CO)[C@@H](O)[C@H](O)[C@H]2O[C@H]2C[C@](C)(N)[C@H](O)[C@H](C)O2)Oc2ccc(cc2Cl)[C@H]1O` [Vancomycin, vancomycin], for which the MIC was determined as 0.5 µg/mL in experiment [1] (wt, MHBC medium, 1 × 10^5 CFU/mL, 37 °C, broth microdilution (CLSI)); 2 µg/mL in experiment [2] (R15.5, MHBC medium, 1 × 10^5 CFU/mL, 37 °C, broth microdilution (CLSI)); 1 µg/mL in [3] (R8.1, MHBC medium, 1 × 10^5 CFU/mL, 37 °C, broth microdilution (CLSI)). Besides, the “shift in MIC relative to wt, in words” value in [2] (R15.5) and in [3] (R8.1) was “modest but consistent shift” in each case. For the same molecule, the “MIC Ratio (R15.1 to wt)” value in [2] stood at 4. For the same molecule, the “binding to lipid II” value in [4] (ref [14],[15]) is “bind to the essential peptidoglycan precursor lipid II”.

Turning to cinnamycin, the “binding to phosphatidylethanolamine-containing lipids” value in [5] is listed as “bind to phosphatidylethanolamine-containing lipids”.

On to duramycin, for which, in experiment [5], the “binding to phosphatidylethanolamine-containing lipids” value was “bind to phosphatidylethanolamine-containing lipids”.

Take gallidermin: the “binding to lipid II” value in experiment [4] (setting [10]) is “bind to lipid II”.

As for labyrinthopeptin A2, the antiviral activity entry in experiment [6] was “moderate antiviral activity”. Further, the “activity in a neuropathic pain model” value in [7] is reported as “highly active”.

For lacticin 3147, the “complex with lipid II” value in experiment [4] (through mersacidin-like component, ref [33]) is “form a complex with lipid II”.

On to lysophosphatidic acid [LPA], for which the TRPV1 receptor activation entry in experiment [8] (ref [10],[11]) is given as “activates the TRPV1 receptor”. The “direct binding to TRPV1 ion channel” value in experiment [8] (ref [24]) is “LPA binding directly to an ion channel”. Besides, the figures for the acute pain-like behaviors result in [9] (Trpv1-null animals) and in experiment [9] (control mice) were “substantially reduced” and “produces acute pain-like behaviors”, respectively.

Take mersacidin: in experiment [4] (class II lantibiotics, ref [28]), the “binding to lipid II” value was “bind to lipid II”.

For nisin, in [4] (setting [10]), the “binding to lipid II” value is “bind to lipid II”. Moreover, in [4] (in membranes of bacterial cells, ref [34]), the “binding to pyrophosphate cage of lipid II” value was “binding of nisin to the pyrophosphate cage of lipid II”.

As to ramoplanin, the MIC in experiment [1] (wt, in the presence of 0.02% BSA, MHBC medium, 1 × 10^5 CFU/mL, 37 °C) amounted to 0.06 µg/mL; in [2] (R15.5, in the presence of 0.02% BSA, MHBC medium, 1 × 10^5 CFU/mL, 37 °C), 0.25 µg/mL; in experiment [3] (R8.1, in the presence of 0.02% BSA, MHBC medium, 1 × 10^5 CFU/mL, 37 °C), 0.25 µg/mL. The “shift in MIC relative to wt, in words” value in experiment [2] (R15.5) and in experiment [3] (R8.1) was “modest but consistent shift” throughout. Further, the “MIC Ratio (R15.1 to wt)” value in experiment [2] (in the presence of 0.02% BSA) came out at 4. Also, the “binding to lipid II” value in [4] (ref [14],[15]) is “bind to the essential peptidoglycan precursor lipid II”.
